# Key:
# [1] = target: T1, Sodium- and chloride-dependent glycine transporter 1 (Rattus norvegicus, UniProt P28572); assay: Inhibition of GlyT1 in primary rat cortical neurons assessed as reduction in [14C]glycine uptake after 2 hrs by microbeta scintillation counting method
# T1 sequence (P28572 whole entry): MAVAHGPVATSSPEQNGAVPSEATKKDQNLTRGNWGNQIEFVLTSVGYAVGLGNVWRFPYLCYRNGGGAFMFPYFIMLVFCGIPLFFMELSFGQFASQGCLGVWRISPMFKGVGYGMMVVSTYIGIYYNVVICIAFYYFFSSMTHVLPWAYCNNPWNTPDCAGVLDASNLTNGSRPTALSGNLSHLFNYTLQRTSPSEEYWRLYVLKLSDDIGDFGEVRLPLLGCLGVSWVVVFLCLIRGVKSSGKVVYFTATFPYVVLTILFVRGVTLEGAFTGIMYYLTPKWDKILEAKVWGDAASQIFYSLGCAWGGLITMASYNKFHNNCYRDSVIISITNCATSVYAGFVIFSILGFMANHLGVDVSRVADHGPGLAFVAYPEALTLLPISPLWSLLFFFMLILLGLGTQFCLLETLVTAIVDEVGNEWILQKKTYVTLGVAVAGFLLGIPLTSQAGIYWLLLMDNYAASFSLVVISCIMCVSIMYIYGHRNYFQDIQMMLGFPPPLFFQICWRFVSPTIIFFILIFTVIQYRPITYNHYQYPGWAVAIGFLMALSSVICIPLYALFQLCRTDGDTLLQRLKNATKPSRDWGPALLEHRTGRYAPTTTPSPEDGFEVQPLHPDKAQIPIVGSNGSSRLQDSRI
# [2] = target: T2, Sodium- and chloride-dependent glycine transporter 2 (Homo sapiens, UniProt Q9Y345); assay: Inhibition of recombinant human GlyT2 expressed in HEK293 cells assessed as reduction in [14C]glycine uptake after 2 hrs by microbeta scintillation counting method; assay type: cell-based
# T2 sequence (Q9Y345 whole entry): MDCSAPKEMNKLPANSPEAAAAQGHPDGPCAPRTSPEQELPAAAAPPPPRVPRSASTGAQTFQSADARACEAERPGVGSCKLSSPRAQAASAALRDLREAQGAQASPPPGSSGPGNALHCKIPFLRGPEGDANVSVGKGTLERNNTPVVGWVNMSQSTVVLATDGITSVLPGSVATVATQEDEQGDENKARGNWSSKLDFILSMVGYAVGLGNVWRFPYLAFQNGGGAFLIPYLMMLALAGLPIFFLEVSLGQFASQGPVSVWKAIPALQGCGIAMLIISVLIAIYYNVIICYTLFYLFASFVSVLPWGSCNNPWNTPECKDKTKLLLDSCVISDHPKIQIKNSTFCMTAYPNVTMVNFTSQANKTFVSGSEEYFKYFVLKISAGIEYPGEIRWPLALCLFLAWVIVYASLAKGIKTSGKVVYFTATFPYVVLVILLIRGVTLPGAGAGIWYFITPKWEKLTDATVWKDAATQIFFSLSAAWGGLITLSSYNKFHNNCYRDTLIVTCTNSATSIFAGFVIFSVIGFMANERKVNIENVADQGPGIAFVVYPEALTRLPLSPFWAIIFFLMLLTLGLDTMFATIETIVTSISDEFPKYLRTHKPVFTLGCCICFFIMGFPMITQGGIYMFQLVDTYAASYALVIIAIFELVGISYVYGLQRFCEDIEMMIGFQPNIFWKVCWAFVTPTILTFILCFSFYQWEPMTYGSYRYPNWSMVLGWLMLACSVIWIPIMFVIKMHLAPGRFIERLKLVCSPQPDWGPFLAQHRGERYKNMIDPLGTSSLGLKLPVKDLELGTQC
# [3] = target: T3, Sodium- and chloride-dependent glycine transporter 1 (Homo sapiens, UniProt P48067); assay: Inhibition of recombinant human GlyT1c expressed in HEK293 cells assessed as reduction in [14C]glycine uptake after 2 hrs by microbeta scintillation counting method; assay type: cell-based
# T3 sequence (P48067 whole entry): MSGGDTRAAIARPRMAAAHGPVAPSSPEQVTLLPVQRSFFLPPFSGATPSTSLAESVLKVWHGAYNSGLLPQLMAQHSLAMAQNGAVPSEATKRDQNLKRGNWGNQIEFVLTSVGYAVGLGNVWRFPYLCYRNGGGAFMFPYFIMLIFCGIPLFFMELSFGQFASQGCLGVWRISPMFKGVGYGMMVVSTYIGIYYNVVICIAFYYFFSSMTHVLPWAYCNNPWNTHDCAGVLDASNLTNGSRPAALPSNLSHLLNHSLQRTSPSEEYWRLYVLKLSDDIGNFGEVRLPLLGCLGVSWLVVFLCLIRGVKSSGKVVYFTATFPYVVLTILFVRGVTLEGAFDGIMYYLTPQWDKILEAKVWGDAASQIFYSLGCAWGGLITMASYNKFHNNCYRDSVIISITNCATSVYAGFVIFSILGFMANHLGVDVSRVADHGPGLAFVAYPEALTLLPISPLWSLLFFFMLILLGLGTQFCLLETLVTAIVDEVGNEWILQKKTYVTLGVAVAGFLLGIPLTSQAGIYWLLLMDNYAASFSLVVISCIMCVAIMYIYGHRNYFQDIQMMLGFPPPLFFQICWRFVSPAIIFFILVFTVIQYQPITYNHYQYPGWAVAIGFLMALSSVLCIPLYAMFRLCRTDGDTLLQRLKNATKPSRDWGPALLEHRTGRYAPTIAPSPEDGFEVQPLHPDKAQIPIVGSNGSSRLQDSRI
# Cytochrome P450 3A4 = Cytochrome P450 3A4 (Homo sapiens, UniProt P08684); assay: Inhibition of CYP3A4 in human liver microsomes using midazolam as substrate measured after 7 mins in presence of NADPH by LC-MS/MS analysis
# Cytochrome P450 3A4, sequence (P08684 whole entry): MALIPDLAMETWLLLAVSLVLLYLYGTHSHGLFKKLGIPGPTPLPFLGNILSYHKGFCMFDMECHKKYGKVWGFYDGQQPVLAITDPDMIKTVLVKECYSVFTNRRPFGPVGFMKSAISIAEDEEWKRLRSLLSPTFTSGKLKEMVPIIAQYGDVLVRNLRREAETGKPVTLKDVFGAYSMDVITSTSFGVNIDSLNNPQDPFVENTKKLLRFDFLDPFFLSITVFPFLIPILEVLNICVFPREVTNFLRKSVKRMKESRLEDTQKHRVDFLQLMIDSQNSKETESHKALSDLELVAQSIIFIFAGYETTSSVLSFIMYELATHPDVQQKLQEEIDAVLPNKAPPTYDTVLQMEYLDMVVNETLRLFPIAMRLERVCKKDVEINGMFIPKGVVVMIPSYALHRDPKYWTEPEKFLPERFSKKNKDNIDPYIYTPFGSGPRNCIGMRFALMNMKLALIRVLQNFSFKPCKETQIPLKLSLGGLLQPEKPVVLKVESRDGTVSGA
# Cytochrome P450 2C9 = Cytochrome P450 2C9 (Homo sapiens, UniProt P11712); assay: Inhibition of CYP2C9 in human liver microsomes using diclofenac as substrate measured after 10 mins in presence of NADPH by LC-MS/MS analysis
# Cytochrome P450 2C9, sequence (P11712 whole entry): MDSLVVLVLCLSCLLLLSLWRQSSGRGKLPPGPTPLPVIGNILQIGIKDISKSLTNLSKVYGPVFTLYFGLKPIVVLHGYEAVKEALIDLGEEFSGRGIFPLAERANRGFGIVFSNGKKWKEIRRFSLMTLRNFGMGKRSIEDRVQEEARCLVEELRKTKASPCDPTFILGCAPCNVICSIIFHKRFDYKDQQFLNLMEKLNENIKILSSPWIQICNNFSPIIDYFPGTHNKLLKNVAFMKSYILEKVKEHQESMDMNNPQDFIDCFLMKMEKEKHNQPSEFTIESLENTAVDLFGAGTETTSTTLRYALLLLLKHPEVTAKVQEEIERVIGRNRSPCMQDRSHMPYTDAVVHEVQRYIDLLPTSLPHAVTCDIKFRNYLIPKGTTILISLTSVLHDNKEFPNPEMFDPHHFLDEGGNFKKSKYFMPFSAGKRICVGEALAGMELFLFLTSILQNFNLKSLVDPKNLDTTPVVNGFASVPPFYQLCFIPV
# [4] = Apparent permeability from apical to basolateral side in MDCK-MDR1 cells monolayer at 5 uM after 60 mins by LC-MS/MS analysis; details: dog
# Cytochrome P450 1A2 = target: T4, Cytochrome P450 1A2 (Homo sapiens, UniProt P05177); assay: Inhibition of CYP1A2 in human liver microsomes using phenacetin as substrate measured after 10 mins in presence of NADPH by LC-MS/MS analysis
# T4 sequence (P05177 whole entry): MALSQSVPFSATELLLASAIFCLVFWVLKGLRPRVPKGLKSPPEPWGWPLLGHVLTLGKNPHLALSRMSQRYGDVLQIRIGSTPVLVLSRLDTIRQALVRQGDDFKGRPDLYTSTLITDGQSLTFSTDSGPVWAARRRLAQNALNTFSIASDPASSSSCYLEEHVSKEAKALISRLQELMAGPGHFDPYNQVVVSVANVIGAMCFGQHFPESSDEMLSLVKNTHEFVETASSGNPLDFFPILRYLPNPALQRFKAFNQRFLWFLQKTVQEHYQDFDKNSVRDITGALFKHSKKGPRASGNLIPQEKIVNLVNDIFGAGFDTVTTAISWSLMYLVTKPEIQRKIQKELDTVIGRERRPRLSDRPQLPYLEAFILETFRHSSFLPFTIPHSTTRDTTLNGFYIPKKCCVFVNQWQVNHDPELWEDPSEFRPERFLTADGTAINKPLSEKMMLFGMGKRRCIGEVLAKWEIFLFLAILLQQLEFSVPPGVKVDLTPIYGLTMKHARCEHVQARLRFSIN
# [5] = target: Voltage-gated inwardly rectifying potassium channel KCNH2 (Homo sapiens, UniProt Q12809); assay: Inhibition of human ERG expressed in CHO cells at 10 nM to 10 uM at holding potential of -80 mV measured after 5 mins by QPatch automated patch clamp electrophysiology method
# Voltage-gated inwardly rectifying potassium channel KCNH2, sequence (Q12809 whole entry): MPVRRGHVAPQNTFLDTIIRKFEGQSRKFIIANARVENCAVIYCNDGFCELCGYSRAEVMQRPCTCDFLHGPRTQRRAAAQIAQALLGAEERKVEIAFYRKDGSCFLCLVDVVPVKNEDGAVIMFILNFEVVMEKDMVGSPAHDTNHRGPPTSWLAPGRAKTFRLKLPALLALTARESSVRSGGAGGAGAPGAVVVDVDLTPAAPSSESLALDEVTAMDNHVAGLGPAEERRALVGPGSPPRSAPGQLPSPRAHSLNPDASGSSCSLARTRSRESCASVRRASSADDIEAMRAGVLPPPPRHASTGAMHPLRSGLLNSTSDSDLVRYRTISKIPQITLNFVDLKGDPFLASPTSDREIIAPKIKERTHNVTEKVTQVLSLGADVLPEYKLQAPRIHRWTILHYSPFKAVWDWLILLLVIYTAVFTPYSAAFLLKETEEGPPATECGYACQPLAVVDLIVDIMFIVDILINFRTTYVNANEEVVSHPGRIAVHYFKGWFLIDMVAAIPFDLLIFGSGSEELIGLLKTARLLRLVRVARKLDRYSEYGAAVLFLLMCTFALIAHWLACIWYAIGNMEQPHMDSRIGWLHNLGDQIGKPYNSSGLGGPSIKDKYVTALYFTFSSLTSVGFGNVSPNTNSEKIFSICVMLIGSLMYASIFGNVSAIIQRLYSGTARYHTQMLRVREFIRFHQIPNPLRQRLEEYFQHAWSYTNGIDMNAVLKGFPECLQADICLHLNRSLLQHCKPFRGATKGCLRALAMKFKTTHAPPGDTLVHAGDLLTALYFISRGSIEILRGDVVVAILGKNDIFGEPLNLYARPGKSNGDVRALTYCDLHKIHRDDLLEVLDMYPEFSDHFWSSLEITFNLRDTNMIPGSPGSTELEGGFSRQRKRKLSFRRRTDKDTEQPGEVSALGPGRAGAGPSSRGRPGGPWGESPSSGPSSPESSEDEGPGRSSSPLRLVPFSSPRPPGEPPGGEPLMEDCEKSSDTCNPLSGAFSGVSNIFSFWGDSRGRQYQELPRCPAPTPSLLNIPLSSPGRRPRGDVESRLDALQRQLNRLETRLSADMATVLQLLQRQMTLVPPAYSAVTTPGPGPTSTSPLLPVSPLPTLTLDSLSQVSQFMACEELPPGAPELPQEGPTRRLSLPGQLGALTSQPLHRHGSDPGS
# Cytochrome P450 2D6 = Cytochrome P450 2D6 (Homo sapiens, UniProt P10635); assay: Inhibition of CYP2D6 in human liver microsomes using dextromethorphan as substrate measured after 10 mins in presence of NADPH by LC-MS/MS analysis
# Cytochrome P450 2D6, sequence (P10635 whole entry): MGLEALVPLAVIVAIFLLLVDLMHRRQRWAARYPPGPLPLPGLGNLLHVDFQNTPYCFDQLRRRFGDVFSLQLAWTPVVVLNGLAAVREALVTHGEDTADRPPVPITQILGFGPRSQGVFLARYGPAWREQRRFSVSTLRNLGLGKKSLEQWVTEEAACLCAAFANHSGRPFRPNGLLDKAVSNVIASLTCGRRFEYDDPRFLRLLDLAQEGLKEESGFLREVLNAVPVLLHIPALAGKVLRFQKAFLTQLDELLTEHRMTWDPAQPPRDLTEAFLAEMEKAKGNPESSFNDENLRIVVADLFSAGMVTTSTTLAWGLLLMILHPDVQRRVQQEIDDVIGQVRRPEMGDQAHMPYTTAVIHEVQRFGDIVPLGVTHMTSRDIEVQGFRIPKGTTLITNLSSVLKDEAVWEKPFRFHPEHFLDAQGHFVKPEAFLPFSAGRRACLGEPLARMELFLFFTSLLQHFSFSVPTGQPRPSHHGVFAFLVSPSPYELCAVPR
# [6] = Intrinsic clearance in rat liver microsomes at 1 uM assessed per mg protein at 37 degC up to 30 mins in presence of NADPH by HPLC-MS analysis; assay type: ADME, microsome; details: read-out: CLH
# [7] = Efflux ratio of apparent permeability from basolateral to apical over apical to basolateral side in MDCK-MDR1 cells at 5 uM after 60 mins by LC-MS/MS analysis; details: dog
# [8] = Intrinsic clearance in human liver microsomes at 1 uM assessed per mg protein at 37 degC up to 60 mins in presence of NADPH by HPLC-MS analysis; assay type: ADME, microsome; details: read-out: CLH
# Cytochrome P450 2C19 = Cytochrome P450 2C19 (Homo sapiens, UniProt P33261); assay: Inhibition of CYP2C19 in human liver microsomes using S-mephenytoin as substrate measured after 10 mins in presence of NADPH by LC-MS/MS analysis
# Cytochrome P450 2C19, sequence (P33261 whole entry): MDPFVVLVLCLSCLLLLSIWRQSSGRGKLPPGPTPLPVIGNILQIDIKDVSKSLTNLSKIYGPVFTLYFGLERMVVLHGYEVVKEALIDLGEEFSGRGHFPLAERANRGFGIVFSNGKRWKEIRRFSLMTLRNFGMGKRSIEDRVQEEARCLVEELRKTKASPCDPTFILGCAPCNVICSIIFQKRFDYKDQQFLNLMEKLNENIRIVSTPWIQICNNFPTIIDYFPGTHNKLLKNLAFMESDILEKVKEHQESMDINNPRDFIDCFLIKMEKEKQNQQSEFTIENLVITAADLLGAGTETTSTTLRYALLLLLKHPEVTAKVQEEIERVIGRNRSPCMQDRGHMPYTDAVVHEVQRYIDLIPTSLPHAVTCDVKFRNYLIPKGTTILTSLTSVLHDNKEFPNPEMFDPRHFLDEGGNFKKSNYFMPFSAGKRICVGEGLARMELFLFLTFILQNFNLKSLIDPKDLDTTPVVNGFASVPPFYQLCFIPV
# [9] = Apparent permeability from basolateral to apical side in MDCK-MDR1 cells monolayer at 5 uM after 60 mins by LC-MS/MS analysis; details: dog
Compound,IC50 [1],IC50 [2],IC50 [3],also measured
Cc1cc(-n2cc3c(n2)CN(C(=O)c2cc(S(C)(=O)=O)ccc2O[C@@H](C)C(F)(F)F)C3)ccn1,0.003 µM,> 10 µM,0.012 µM,
Cc1cc(-n2cc3c(n2)CN(C(=O)c2cc(C#N)ccc2N2CCC(F)(F)CC2)C3)ccn1,0.004 µM,> 10 µM,,
CC(C)S(=O)(=O)c1ccc(O[C@@H](C)C(F)(F)F)c(C(=O)N2Cc3cn(-c4ccccc4)nc3C2)c1,0.079 µM,> 10 µM,0.406 µM,"IC50 (Cytochrome P450 3A4): > 10 µM; IC50 (Cytochrome P450 2C9): > 10 µM; Papp A→B at 1 h, 5 µM [4]: 56.6 ×10⁻⁶ cm/s; IC50 (Cytochrome P450 1A2): > 10 µM; IC50 [5]: > 10 µM; IC50 (Cytochrome P450 2D6): > 10 µM; microsomal CLint at 1 µM [6]: 1.8 µL/min/mg; efflux ratio at 1 h, 5 µM [7]: 2.2; microsomal CLint at 1 µM [8]: 10 µL/min/mg; IC50 (Cytochrome P450 2C19): > 10 µM; Papp B→A at 1 h, 5 µM [9]: 123 ×10⁻⁶ cm/s"
CC(C)Oc1ccc(C#N)cc1C(=O)N1Cc2cn(-c3cncc(F)c3)nc2C1,0.183 µM,> 10 µM,0.113 µM,
Cc1cccc(-n2cc3c(n2)CN(C(=O)c2cc(S(C)(=O)=O)ccc2O[C@@H](C)C(F)(F)F)C3)c1,0.012 µM,> 10 µM,0.023 µM,
Cc1cc(-n2cc3c(n2)CN(C(=O)c2cc(S(C)(=O)=O)ccc2-c2cccc(F)c2)C3)ccn1,0.002 µM,> 10 µM,0.004 µM,
CC(C)Oc1ccc(S(C)(=O)=O)cc1C(=O)N1Cc2cn(-c3ccccc3F)nc2C1,0.018 µM,> 10 µM,0.023 µM,
CC(C)Oc1ccc(C#N)cc1C(=O)N1Cc2cn(-c3ccccc3)nc2C1,0.161 µM,> 10 µM,0.105 µM,
CCS(=O)(=O)c1ccc(O[C@@H](C)C(F)(F)F)c(C(=O)N2Cc3cn(-c4ccccc4F)nc3C2)c1,0.009 µM,> 10 µM,0.029 µM,"IC50 (Cytochrome P450 3A4): > 10 µM; IC50 (Cytochrome P450 2C9): > 10 µM; Papp A→B at 1 h, 5 µM [4]: 18 ×10⁻⁶ cm/s; IC50 (Cytochrome P450 1A2): > 10 µM; IC50 [5]: > 10 µM; IC50 (Cytochrome P450 2D6): > 10 µM; efflux ratio at 1 h, 5 µM [7]: 2.9; microsomal CLint at 1 µM [8]: 0.9 µL/min/mg; IC50 (Cytochrome P450 2C19): > 10 µM; Papp B→A at 1 h, 5 µM [9]: 51.9 ×10⁻⁶ cm/s"
CS(=O)(=O)c1ccc(-c2cccc(F)c2)c(C(=O)N2Cc3cn(-c4cncc(F)c4)nc3C2)c1,0.01 µM,> 10 µM,0.006 µM,
N#Cc1ccc(-c2cccc(F)c2)c(C(=O)N2Cc3cn(-c4cncc(F)c4)nc3C2)c1,0.619 µM,> 10 µM,,
CCS(=O)(=O)c1ccc(O[C@@H](C)C(F)(F)F)c(C(=O)N2Cc3cn(-c4ccnc(C)c4)nc3C2)c1,0.004 µM,> 10 µM,0.012 µM,
Cc1cc(-n2cc3c(n2)CN(C(=O)c2cc(S(C)(=O)=O)ccc2N2CCC(F)(F)CC2)C3)ccn1,0.004 µM,> 10 µM,0.007 µM,
Cc1cc(-n2cc3c(n2)CN(C(=O)c2cc(C#N)ccc2-c2cccc(F)c2)C3)ccn1,0.078 µM,> 10 µM,0.055 µM,
CCS(=O)(=O)c1ccc(O[C@@H](C)C(F)(F)F)c(C(=O)N2Cc3cn(-c4cncc(F)c4)nc3C2)c1,0.008 µM,> 10 µM,0.027 µM,"IC50 (Cytochrome P450 3A4): > 10 µM; IC50 (Cytochrome P450 2C9): > 10 µM; Papp A→B at 1 h, 5 µM [4]: 5.8 ×10⁻⁶ cm/s; IC50 (Cytochrome P450 1A2): > 10 µM; IC50 [5]: > 10 µM; IC50 (Cytochrome P450 2D6): > 10 µM; microsomal CLint at 1 µM [6]: 5.4 µL/min/mg; efflux ratio at 1 h, 5 µM [7]: 17.2; microsomal CLint at 1 µM [8]: 1.3 µL/min/mg; IC50 (Cytochrome P450 2C19): > 10 µM; Papp B→A at 1 h, 5 µM [9]: 99 ×10⁻⁶ cm/s"
C[C@H](Oc1ccc(C#N)cc1C(=O)N1Cc2cn(C3CCCC3)nc2C1)C(F)(F)F,0.331 µM,,0.21 µM,
Cc1cc(-n2cc3c(n2)CN(C(=O)c2cc(C#N)ccc2O[C@@H](C)C(F)(F)F)C3)ccn1,0.027 µM,> 10 µM,0.018 µM,
CS(=O)(=O)c1ccc(N2CCC(F)(F)CC2)c(C(=O)N2Cc3cn(-c4cncc(F)c4)nc3C2)c1,0.01 µM,> 10 µM,,
CS(=O)(=O)c1ccc(N2CCC(F)(F)CC2)c(C(=O)N2Cc3cn(-c4ccccc4F)nc3C2)c1,0.012 µM,> 10 µM,,
CS(=O)(=O)c1ccc(-c2cccc(F)c2)c(C(=O)N2Cc3cn(-c4ccccc4F)nc3C2)c1,0.012 µM,> 10 µM,0.01 µM,
